According to publication PMC6746776, “TA*p63 and GTAp63 achieve tighter transcriptional regulation in quality control by converting an inhibitory element into an additional transactivation domain” (Cell Death & Disease, 2019):
“Also recorded” adds a separate entry of the source.

Assays:
[1] = system: mutant p53 in Sum159 cells; assay: Western blot, mutant p53 level in Sum159 cells; type: cell-based, human; conditions: 10 µM Dox, mutant p53, immunoblotting (DO-1)
Method: (§1) 4–15 or 7.5% SDS–PAGE Mini-PROTEAN TGX gels (BioRad) were blotted using the semidry Trans-Blot Turbo Transfer system (BioRad).The following antibodies were prepared in 5% milk in TBS-T and incubated overnight at 4 °C: anti-Myc (1:1000, clone 4A6, Millipore), anti-p63 (1:2500, ab124762, Abcam), anti-p63α XP (1:1000, D2K8X, Cell Signaling), anti-GAPDH (1:20,000, clone 6C5, Merck), anti-p53 (1:500, DO-1, Santa Cruz), anti-PARP (1:1000, 9542, Cell Signaling), anti-cleaved caspase3 (1:1000, 5A1E,Cell Signaling), and anti-vinculin (1:1000, clone 7F9, Santa Cruz). Secondary antibodies, used for detection, were also prepared in 5% milk in TBS-T and incubated for 1 h at RT (goat anti-mouse HRP, 1:5000, A9917, Sigma–Aldrich; goat anti-rabbit HRP, 1:2000, Jackson Immuno Research Europe Ltd., 111–035–144). Quantification of western blot signals was performed by using ImageJ.
(§2) Supplementary Figure S8 Dox treatment induces apoptosis in the breast cancer cell line Sum159. SDS-PAGEs followed by immunoblotting of Dox treated (10 µM) Sum159 cells. (a) Western blot was analyzed for the apoptosis markers PARP (#9542, Cell Signaling) and caspase 3 (5A1E, Cell Signaling). PARP and caspase3 cleavage were detectable starting at 4 h following treatment. (b) Mutant p53 (DO-1, Santa Cruz) and TA*p63α (D2K8X, Cell Signaling) levels were also investigated. […] GAPDH was used as loading control.

TA*p63α in Sum159 cells [2] = assay: Western blot, TA*p63α level in Sum159 cells; type: cell-based, human; conditions: 10 µM Dox, immunoblotting (D2K8X)
Method: as §1, §2

TAp63α = assay: BN-PAGE oligomeric state of TAp63α upon Dox treatment
Method: (§4) As a control, we used the S582/S583A mutants, which remove the Chk2 priming site preventing tetramerization[13].
(§5) Three hundred nanogram expression vector carrying the p63α gene were transiently transfected in U2OS cells (12-well plate). The next day, cells were treated with 10 µM Dox for 6 h. Migration of the different oligomeric states is indicated by T (tetramer), D (dimer), and M (monomer). […] Western blot analysis was carried out using an anti-myc antibody (4A6, Merck). Cells were pre-incubated with increasing Chk2 (BML-277, Merck) or CK1 inhibitor (PF670462, Sigma–Aldrich) concentrations (5, 25, 50 µM) for 1 h. Afterwards, 10 µM Dox was added and cells were harvested 6 h later. Migration of the different oligomeric states is indicated by T (tetramer), D (dimer), and M (monomer). Vinculin was used as loading control. Protein levels loaded on BN-PAGE were adjusted to equal p63 amounts by prior western blot analysis. SDS-PAGE to detect phosphoshifts were not input adjusted
(§6) H1299 cells were transfected using the Qiagen Effectene kit according to the manufacturer’s manual in a 12-well plate or H1299 cells stably expressing p63 isoforms were used. Cells were harvested and lysed in NP lysis buffer (20 mM Tris, 150 mM NaCl, 2 mM MgCl2, 20 mM CHAPS, 1 mM DTT, complete protease inhibitor cocktail (Roche), PhosSTOP (Roche) pH 7.4 or pH 8.0). Benzonase (Merck) was added and samples were lysed on ice for 1 h. BN-PAGE (3–12%, Thermo Fisher Scientific) was performed and blotted as previously described[17],[35]. Protein levels loaded on BN-PAGE were adjusted to equal p63 amounts by prior western blot analysis. SDS-PAGE to detect phosphoshifts were not input adjusted.
(§7) 300 ng expression vector carrying the p63 gene were transiently transfected in H1299 cells (12-well plate). The next day, cells were treated with 10 µM Dox for 6 h. Migration of the different oligomeric states is indicated by T (tetramer), D (dimer) and M (monomer). […] Stably p63 expressing H1299 were treated with 10 µM Dox for up to 10 h. Protein levels loaded on BN-PAGE were adjusted to equal p63 amounts by prior western blot analysis. SDS-PAGE to detect phosphoshifts were not input adjusted.

Sum159 cells [3] = assay: Western blot, apoptosis markers cleaved PARP and cleaved Caspase3 in Sum159 cells; type: cell-based, human; conditions: 10 µM Dox, immunoblotting
Method: as §1, §2

TA*p63α = assay: BN-PAGE oligomeric state of TA*p63α upon Dox treatment
Method: as §4, §5, §6, §7

Sum159 cells [4] = assay: Cell survival assay of Sum159 cells (crystal violet); type: cell-based, human; conditions: 1.5 µM Dox for 24 h, cultured for additional 24 h (24–30 h in method), vs DMSO
Method: (§3) Immunoprecipitation was performed with two different p63 specific antibodies, AHP1815 (BioRad) and ab124267 (Abcam). For detection on WB, the p63α XP (D2K8X, cell signaling) antibody was used. b Specific TA*-peptides were found in two independent IP-MS analyses of immunoprecipitated p63 from Sum159 cells. Immunoprecipitation was performed with the p63 antibody ab124267 (Abcam). Two different types of mass spectrometers relying on different fragmentation and detection approaches were used for the experiments (IT: ion trap, CID: collision induced dissociation, FT: Fourier transform, HCD: higher-energy collisional dissociation). c BN-PAGE (3–12%) of Sum159 lysate followed by western blotting for TA*p63α. […] Cells were treated with 1.5 µM Dox or DMSO for 24 h (six-well plate) and cultured for additional 24–30 h. Sum159 cells were fixed with glutaraldehyde (6%) and stained with crystal violet (0.5%)
Sum159 cells were seeded in a six-well plate. Two days after seeding, cells were treated either with 1.5 µM Dox or DMSO for 24 h. The medium was changed and cells were cultured for additional 24–30 h. Afterwards, cells were washed three times with PBS and the fixation and staining solution (0.5% crystal violet, 6% glutaraldehyde) was incubated 1–2 h at RT. The solution was aspirated and the fixed cells were washed about five times with H2O and dried for 1–2 days at RT.

TA*p63α in Sum159 cells [5] = assay: BN-PAGE of Sum159 lysate, oligomeric state of endogenous TA*p63α; type: cell-based, human; conditions: 10 µM Dox, different periods of time, BN-PAGE (3–12%)
Method: as §3
To test whether TA*p63α can be activated in Sum159 cells by chemotherapeutic agents and induce apoptosis we treated cells with 10 µM Dox. […] Furthermore, the apoptosis marker cleaved PARP and cleaved Caspase3 are detectable starting 4 h following treatment (Supplementary Fig. S8). We also investigated cell survival.

GTAp63α = assay: BN-PAGE oligomeric state of GTAp63α upon Dox treatment
Method: as §4, §5, §6, §7

[6] = molecular target: T1, TA*-GTA* peptide (1*-39*) (fluorescein on the N-terminus); assay: fluorescence polarisation; fluorescence anisotropy; 100 nM N-terminally fluorescein-labelled peptide, increasing concentration of Taz2; 22 °C; two site specific binding fit; conditions: both partners purified
T1 chain: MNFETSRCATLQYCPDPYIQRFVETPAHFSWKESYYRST

[7] = molecular target: GTA-GTA* peptide (1′-37′) (not stated (isoform of humans and great apes)); assay: as above
[8] = molecular target: the molecule itself; assay: SEC; in vitro translated protein in rabbit reticulocyte lysate on Superose 6 3.2/300, 50 mM sodium phosphate pH 7.8, 100 mM NaCl, 4 °C; fractions analysed by western blot
TAp63α FWL = assay: as above
[9] = molecular target: the molecule itself; assay: native gel or EMSA; Blue-Native PAGE (3-12%) of Sum159 lysate, endogenous protein, before doxorubicin
[10] = molecular target: the molecule itself; assay: native gel or EMSA; Blue-Native PAGE (3-12%) of Sum159 lysate, endogenous protein, cells treated with 10 µM doxorubicin for different periods of time
[11] = H1299 stably expressing, 10 µM Dox for up to 10 h, BN-PAGE (Supplementary Fig. S4c)
[12] = transfected U2OS and H1299 cells, 10 µM Dox, 6 h, BN-PAGE

COc1cccc2c1C(=O)c1c(O)c3c(c(O)c1C2=O)C[C@@](O)(C(=O)CO)C[C@@H]3O[C@H]1C[C@H](N)[C@H](O)[C@H](C)O1 [Dox, doxorubicin]
p53 level during treatment [1]: A decrease in p63 and p53 level is detectable | p63 level during treatment (TA*p63α in Sum159 cells [2]): A decrease in p63 and p53 level is detectable | tetramer/dimer ratio following Dox, TAp63α (TAp63α; [11]): almost completely converted into tetramers | time after which TAp63α becomes partly tetrameric (TAp63α; tetramerization kinetics, H1299 stably expressing, 10 µM Dox for up to 10 h): 1 h | activation to tetrameric state, TAp63α (TAp63α; [12]): activates all three isoforms to adopt tetrameric states | time from which cleaved Caspase3 is detectable (Sum159 cells [3]): 4 h | time from which cleaved PARP is detectable (Sum159 cells [3]): 4 h | tetramer/dimer ratio following Dox, TA*p63α (TA*p63α; [11]): do not achieve predominant tetramerization like TAp63α; also recorded: significant population of the dimeric state; also recorded: do not reach the high tetramer/dimer ratio seen with TAp63α | activation to tetrameric state, TA*p63α (TA*p63α; [12]): activates all three isoforms to adopt tetrameric states | cell survival (cell density) (Sum159 cells [4]): clear decrease in cell density | shift of oligomeric state of TA*p63α in Sum159 cells (TA*p63α in Sum159 cells [5]): activated upon Dox treatment; also recorded: shifted from the inactive, dimeric to the active, tetrameric form | shift of oligomeric state of TA*p63α in Sum159 cells (TA*p63α in Sum159 cells [5]; listed as doxorubicin): TA*p63α gets activated | tetramer/dimer ratio following Dox, GTAp63α (GTAp63α; [11]): do not achieve predominant tetramerization like TAp63α; also recorded: significant population of the dimeric state; also recorded: do not reach the high tetramer/dimer ratio seen with TAp63α | activation to tetrameric state, GTAp63α (GTAp63α; [12]): activates all three isoforms to adopt tetrameric states

B1: p300 Taz2 domain (domain or fragment)
chain: ATQSPGDSRRLSIQRCIQSLVHACQCRNANCSLPSCQKMKRVVQHTKGCKRKTNGGCPICKQLIALCCYHAKHCQENKCPVPFCLNIKQK
Kd [6]: 13.2 ± 0.93 µM | Kd [7]: 4.79 µM

B2: TA*p63α FWL (natural protein, UniProt Q9H3D4-1 1-680, looked up)
chain: MNFETSRCATLQYCPDPYIQRFVETPAHFSWKESYYRSTMSQSTQTNEFLSPEVAQHIADFAEQPICSVQPIDLNFVDEPSEDGATNKIEISMDCIRMQDSDLSDPMWPQYTNLGLLNSMDQQIQNGSSSTSPYNTDHAQNSVTAPSPYAQPSSTFDALSPSPAIPSNTDYPGPHSFDVSFQQSSTAKSATWTYSTELKKLYCQIAKTCPIQIKVMTPPPQGAVIRAMPVYKKAEHVTEVVKRCPNHELSREFNEGQIAPPSHLIRVEGNSHAQYVEDPITGRQSVLVPYEPPQVGTEFTTVLYNFMCNSSCVGGMNRRPILIIVTLETRDGQVLGRRCFEARICACPGRDRKADEDSIRKQQVSDSTKNGDGTKRPFRQNTHGIQMTSIKKRRSPDDELLYLPVRGRETYEMLLKIKESLELMQYLPQHTIETYRQQQQQQHQHLLQKQTSIQSPSSYGNSSPPLNKMNSMNKLPSVSQLINPQQRNALTPTTIPDGMGANIPMMGTHMPMAGDMNGLSPTQALPPPLSMPSTSHCTPPPPYPTDCSIVSFLARLGCSSCLDYFTTQGLTTIYQIEHYSMDDLASLKIPEQFRHAIWKGILDHRQLHEFSSPSHLLRTPSSASTVSVGSSETRGERVIDAVRFTLRQTISFPPRDEWNDFNFDMDARRNKQQRIKEEGE
notes: TA*p63α: another translation start site adds 39 aa N-terminally to TAp63α; also called FWL mutant of TA*p63α; source: in vitro translated (rabbit reticulocyte lysate); not shown: myc, N-terminal, kept
stoichiometry N [8]: 2 | stoichiometry N (TAp63α FWL): 4

B3: TA*p63α (natural protein, human (endogenous in Sum159), UniProt Q9H3D4-1 1-680, looked up)
chain: MNFETSRCATLQYCPDPYIQRFVETPAHFSWKESYYRSTMSQSTQTNEFLSPEVFQHIWDFLEQPICSVQPIDLNFVDEPSEDGATNKIEISMDCIRMQDSDLSDPMWPQYTNLGLLNSMDQQIQNGSSSTSPYNTDHAQNSVTAPSPYAQPSSTFDALSPSPAIPSNTDYPGPHSFDVSFQQSSTAKSATWTYSTELKKLYCQIAKTCPIQIKVMTPPPQGAVIRAMPVYKKAEHVTEVVKRCPNHELSREFNEGQIAPPSHLIRVEGNSHAQYVEDPITGRQSVLVPYEPPQVGTEFTTVLYNFMCNSSCVGGMNRRPILIIVTLETRDGQVLGRRCFEARICACPGRDRKADEDSIRKQQVSDSTKNGDGTKRPFRQNTHGIQMTSIKKRRSPDDELLYLPVRGRETYEMLLKIKESLELMQYLPQHTIETYRQQQQQQHQHLLQKQTSIQSPSSYGNSSPPLNKMNSMNKLPSVSQLINPQQRNALTPTTIPDGMGANIPMMGTHMPMAGDMNGLSPTQALPPPLSMPSTSHCTPPPPYPTDCSIVSFLARLGCSSCLDYFTTQGLTTIYQIEHYSMDDLASLKIPEQFRHAIWKGILDHRQLHEFSSPSHLLRTPSSASTVSVGSSETRGERVIDAVRFTLRQTISFPPRDEWNDFNFDMDARRNKQQRIKEEGE
notes: also called endogenous TA*p63α of Sum159 cells; source: endogenous, Sum159 lysate
stoichiometry N [9]: 2 | stoichiometry N [10]: 4
